Test results from the NIST ThermoML archive (doi:10.1021/acs.jced.7b01033).
± gives the expanded uncertainty stated by the source.

Legend:
[1] = 100.5 kPa, Liquid, Vibrating tube method
[2] = xn = mol fraction of the nth substance listed; settings: 100.5 kPa, Liquid, Vibrating tube method

`CCCCn1cc[n+](C)c1C.O=S(=O)([N-]S(=O)(=O)C(F)(F)F)C(F)(F)F` gave a mass density ([1]; 293.15 K) of 1424 ± 2.1 kg/m3, a mass density ([1]; 303.15 K) of 1414.6 ± 2.1 kg/m3 and a mass density ([1]; 313.15 K) of 1405.3 ± 2.1 kg/m3. For the same compound, the mass density ([1]; 323.15 K) was 1396 ± 2.1 kg/m3, the mass density ([1]; 333.15 K) was 1386.9 ± 2.1 kg/m3 and the mass density ([1]; 343.15 K) was 1377.8 ± 2.1 kg/m3. For the same compound, the mass density ([1]; 353.15 K) was 1368.7 ± 2.1 kg/m3.
Work on `CCC[n+]1ccn(C)c1C.O=S(=O)([N-]S(=O)(=O)C(F)(F)F)C(F)(F)F` yielded a mass density ([1]; 293.15 K) of 1460 ± 2.1 kg/m3, a mass density ([1]; 303.15 K) of 1450.3 ± 2.1 kg/m3 and a mass density ([1]; 313.15 K) of 1440.7 ± 2.1 kg/m3. The mass density ([1]; 323.15 K) was 1431.2 ± 2.1 kg/m3, the mass density ([1]; 333.15 K) was 1421.7 ± 2.1 kg/m3 and the mass density ([1]; 343.15 K) was 1412.4 ± 2.1 kg/m3. It also gave a mass density ([1]; 353.15 K) of 1403 ± 2.1 kg/m3.
Compound `CCCCCCn1cc(C)[n+](C)c1.O=S(=O)([N-]S(=O)(=O)C(F)(F)F)C(F)(F)F` + CCCCCC[n+]1cn(C)cc1C.O=S(=O)([N-]S(=O)(=O)C(F)(F)F)C(F)(F)F has a mass density ([2]; 293.15 K, x1 = 0.637) of 1352.5 ± 2.1 kg/m3, a mass density ([2]; 303.15 K, x1 = 0.637) of 1343.3 ± 2.1 kg/m3 and a mass density ([2]; 313.15 K, x1 = 0.637) of 1334.2 ± 2.1 kg/m3. For the same compound, the mass density ([2]; 323.15 K, x1 = 0.637) was 1325.2 ± 2.1 kg/m3, the mass density ([2]; 333.15 K, x1 = 0.637) was 1316.3 ± 2.1 kg/m3 and the mass density ([2]; 343.15 K, x1 = 0.637) was 1307.4 ± 2.1 kg/m3. For the same compound, the mass density ([2]; 353.15 K, x1 = 0.637) was 1298.5 ± 2 kg/m3.
`CCCCn1cc(C)[n+](C)c1CC.O=S(=O)([N-]S(=O)(=O)C(F)(F)F)C(F)(F)F` + CCCCn1c(C)c[n+](C)c1CC.O=S(=O)([N-]S(=O)(=O)C(F)(F)F)C(F)(F)F showed a mass density ([2]; 293.15 K, x1 = 0.806) of 1371.2 ± 2.1 kg/m3, a mass density ([2]; 303.15 K, x1 = 0.806) of 1361.9 ± 2.1 kg/m3 and a mass density ([2]; 313.15 K, x1 = 0.806) of 1352.8 ± 2.1 kg/m3. The mass density ([2]; 323.15 K, x1 = 0.806) was 1343.7 ± 2.1 kg/m3, the mass density ([2]; 333.15 K, x1 = 0.806) was 1334.7 ± 2.1 kg/m3 and the mass density ([2]; 343.15 K, x1 = 0.806) was 1325.8 ± 2.1 kg/m3. For the same compound, the mass density ([2]; 353.15 K, x1 = 0.806) was 1316.9 ± 2.1 kg/m3.
In the case of `CCCCCCn1cc[n+](C)c1C.O=S(=O)([N-]S(=O)(=O)C(F)(F)F)C(F)(F)F`, the mass density ([1]; 293.15 K) is reported as 1362.2 ± 2.1 kg/m3, the mass density ([1]; 303.15 K) is reported as 1353.1 ± 2.1 kg/m3 and the mass density ([1]; 313.15 K) is reported as 1344.1 ± 2.1 kg/m3. It also gave a mass density ([1]; 323.15 K) of 1335.2 ± 2.1 kg/m3, a mass density ([1]; 333.15 K) of 1326.3 ± 2.1 kg/m3 and a mass density ([1]; 343.15 K) of 1317.5 ± 2.1 kg/m3. The mass density ([1]; 353.15 K) was 1308.7 ± 2.1 kg/m3.
Compound `CCc1n(C)c(C)c[n+]1CC.O=S(=O)([N-]S(=O)(=O)C(F)(F)F)C(F)(F)F` + CCc1n(C)cc(C)[n+]1CC.O=S(=O)([N-]S(=O)(=O)C(F)(F)F)C(F)(F)F has a mass density ([2]; 293.15 K, x1 = 0.735) of 1431.7 ± 2.1 kg/m3, a mass density ([2]; 303.15 K, x1 = 0.735) of 1422 ± 2.1 kg/m3 and a mass density ([2]; 313.15 K, x1 = 0.735) of 1412.6 ± 2.1 kg/m3. It also gave a mass density ([2]; 323.15 K, x1 = 0.735) of 1403.1 ± 2.1 kg/m3, a mass density ([2]; 333.15 K, x1 = 0.735) of 1393.8 ± 2.1 kg/m3 and a mass density ([2]; 343.15 K, x1 = 0.735) of 1384.6 ± 2.1 kg/m3. It also gave a mass density ([2]; 353.15 K, x1 = 0.735) of 1375.3 ± 2.1 kg/m3.
In the case of `CC[n+]1cc(C)n(C)c1.O=S(=O)([N-]S(=O)(=O)C(F)(F)F)C(F)(F)F` + CC[n+]1cn(C)cc1C.O=S(=O)([N-]S(=O)(=O)C(F)(F)F)C(F)(F)F, the mass density ([2]; 293.15 K, x1 = 0.602) is reported as 1483.2 ± 2.1 kg/m3, the mass density ([2]; 303.15 K, x1 = 0.602) is reported as 1473.3 ± 2.1 kg/m3 and the mass density ([2]; 313.15 K, x1 = 0.602) is reported as 1463.4 ± 2.1 kg/m3. It also gave a mass density ([2]; 323.15 K, x1 = 0.602) of 1453.6 ± 2.1 kg/m3, a mass density ([2]; 333.15 K, x1 = 0.602) of 1443.9 ± 2.1 kg/m3 and a mass density ([2]; 343.15 K, x1 = 0.602) of 1434.2 ± 2.1 kg/m3. It also gave a mass density ([2]; 353.15 K, x1 = 0.602) of 1424.6 ± 2.1 kg/m3.
`CCn1cc[n+](C)c1C.O=S(=O)([N-]S(=O)(=O)C(F)(F)F)C(F)(F)F` showed a mass density ([1]; 293.15 K) of 1496.4 ± 2.1 kg/m3, a mass density ([1]; 303.15 K) of 1486.7 ± 2.1 kg/m3 and a mass density ([1]; 313.15 K) of 1476.9 ± 2.1 kg/m3. For the same compound, the mass density ([1]; 323.15 K) was 1467.3 ± 2.1 kg/m3, the mass density ([1]; 333.15 K) was 1457.7 ± 2.1 kg/m3 and the mass density ([1]; 343.15 K) was 1448.2 ± 2.1 kg/m3. For the same compound, the mass density ([1]; 353.15 K) was 1438.8 ± 2.1 kg/m3.
Compound `CCCCn1cc(C)[n+](C)c1.O=S(=O)([N-]S(=O)(=O)C(F)(F)F)C(F)(F)F` + CCCC[n+]1cn(C)cc1C.O=S(=O)([N-]S(=O)(=O)C(F)(F)F)C(F)(F)F has a mass density ([2]; 313.15 K, x1 = 0.637) of 1391.1 ± 2.1 kg/m3, a mass density ([2]; 323.15 K, x1 = 0.637) of 1381 ± 2.1 kg/m3 and a mass density ([2]; 333.15 K, x1 = 0.637) of 1372.3 ± 2.1 kg/m3. The mass density ([2]; 343.15 K, x1 = 0.637) was 1363.1 ± 2.1 kg/m3 and the mass density ([2]; 353.15 K, x1 = 0.637) was 1353.9 ± 2.1 kg/m3.
`CCC[n+]1cc(C)n(C)c1CC.O=S(=O)([N-]S(=O)(=O)C(F)(F)F)C(F)(F)F` + CCC[n+]1c(C)cn(C)c1CC.O=S(=O)([N-]S(=O)(=O)C(F)(F)F)C(F)(F)F showed a mass density ([2]; 293.15 K, x1 = 0.763) of 1401.2 ± 2.1 kg/m3, a mass density ([2]; 303.15 K, x1 = 0.763) of 1391.7 ± 2.1 kg/m3 and a mass density ([2]; 313.15 K, x1 = 0.763) of 1382.3 ± 2.1 kg/m3. The mass density ([2]; 323.15 K, x1 = 0.763) was 1373 ± 2.1 kg/m3, the mass density ([2]; 333.15 K, x1 = 0.763) was 1363.8 ± 2.1 kg/m3 and the mass density ([2]; 343.15 K, x1 = 0.763) was 1354.7 ± 2.1 kg/m3. It also gave a mass density ([2]; 353.15 K, x1 = 0.763) of 1345.5 ± 2.1 kg/m3.
Work on `CCCn1cc(C)[n+](C)c1.O=S(=O)([N-]S(=O)(=O)C(F)(F)F)C(F)(F)F` + CCCn1c[n+](C)cc1C.O=S(=O)([N-]S(=O)(=O)C(F)(F)F)C(F)(F)F yielded a mass density ([2]; 293.15 K, x1 = 0.629) of 1445.4 ± 2.1 kg/m3, a mass density ([2]; 303.15 K, x1 = 0.629) of 1435.6 ± 2.1 kg/m3 and a mass density ([2]; 313.15 K, x1 = 0.629) of 1425.9 ± 2.1 kg/m3. It also gave a mass density ([2]; 323.15 K, x1 = 0.629) of 1416.3 ± 2.1 kg/m3, a mass density ([2]; 333.15 K, x1 = 0.629) of 1406.9 ± 2.1 kg/m3 and a mass density ([2]; 343.15 K, x1 = 0.629) of 1397.3 ± 2.1 kg/m3. It also gave a mass density ([2]; 353.15 K, x1 = 0.629) of 1387.9 ± 2.1 kg/m3.
Work on `CCCCCCn1cc(C)[n+](C)c1CC.O=S(=O)([N-]S(=O)(=O)C(F)(F)F)C(F)(F)F` + CCCCCC[n+]1c(C)cn(C)c1CC.O=S(=O)([N-]S(=O)(=O)C(F)(F)F)C(F)(F)F yielded a mass density ([2]; 293.15 K, x1 = 0.813) of 1325.2 ± 2.1 kg/m3, a mass density ([2]; 303.15 K, x1 = 0.813) of 1316.2 ± 2.1 kg/m3 and a mass density ([2]; 313.15 K, x1 = 0.813) of 1307.3 ± 2.1 kg/m3. For the same compound, the mass density ([2]; 323.15 K, x1 = 0.813) was 1298.5 ± 2 kg/m3, the mass density ([2]; 333.15 K, x1 = 0.813) was 1289.7 ± 2 kg/m3 and the mass density ([2]; 343.15 K, x1 = 0.813) was 1281 ± 2 kg/m3. For the same compound, the mass density ([2]; 353.15 K, x1 = 0.813) was 1272.3 ± 2 kg/m3.
